Source: article PMC9274761, “Effects of Structurally Different HDAC Inhibitors against Trypanosoma cruzi, Leishmania, and Schistosoma mansoni” (ACS Infectious Diseases, 2022)
Where “and” joins values, the source holds several entries; their conditions need not be identical. Equal values may be shown once. Read-outs that look alike come from different tables or passages of the source.

Tests used:
[1] = system: T. cruzi amastigotes and trypomastigotes; assay: T. cruzi infection assay in L929 cells (beta-galactosidase Tulahuen strain); format: cell-based, Trypanosoma cruzi; conditions: for selectivity index (SI), CC50/EC50: L929 CC50 / T. cruzi EC50; for EC50 / EC50, growth of T. cruzi amastigotes and trypomastigotes: mean ± SD; for EC50: read-out: EC50, growth of T. cruzi amastigotes and trypomastigotes
[2] = system: L. amazonensis amastigotes in primary mouse macrophages; conditions: 10 μM, 3 days, toxic = toxic for macrophages
[3] = system: L. donovani axenic amastigotes; assay: Resazurin reduction assay, L. donovani axenic amastigotes; format: cell-based; conditions: Leishmania donovani, read-out: percentage of inhibition, L. donovani axenic amastigotes
[4] = system: newly transformed schistosomula (NTS); assay: Phenotypic screening on newly transformed schistosomula (NTS); format: cell-based, Schistosoma mansoni; conditions: for IC50: Schistosoma mansoni, 72 h, read-out: IC50, viability of NTS
[5] = system: L. amazonensis promastigotes; assay: Resazurin reduction assay, L. amazonensis promastigotes; format: cell-based; conditions: Leishmania amazonensis, read-out: percentage of inhibition, L. amazonensis promastigotes
in vitro = conditions: mouse
[6] = system: L. donovani promastigotes; assay: Resazurin reduction assay, L. donovani promastigotes; format: cell-based; conditions: Leishmania donovani, read-out: percentage of inhibition, L. donovani promastigotes
[7] = MTT viability assay in RPE cells; format: cell-based, human; conditions: human, retinal pigment epithelial (RPE) cells, read-out: percentage of RPE cell viability, 48 h
[8] = system: human retinal pigment epithelial (RPE) cells; assay: MTT viability assay in RPE cells; format: cell-based; conditions: Homo sapiens, RPE, 48 h, read-out: IC50 in RPE cells (cell viability)
S. mansoni adult worms = assay: Phenotypic screening on S. mansoni adult worms; format: cell-based, Schistosoma mansoni; conditions: 72 h
[9] = Trypanosoma cruzi, L929, 96 h, infected L929 cells, 96 h
[10] = 40 μM, infected L929 cells, 96 h, toxic = L929 death
[11] = 80 μM, infected L929 cells, 96 h, toxic = L929 death
[12] = 160 μM, infected L929 cells, 96 h, toxic = L929 death
[13] = Trypanosoma cruzi, infected L929 cells, 96 h, read-out: percentage of T. cruzi growth inhibition
[14] = Trypanosoma cruzi, 2.5 μM, infected L929 cells, 96 h, toxic = L929 death, read-out: percentage of T. cruzi growth inhibition
[15] = Trypanosoma cruzi, 5 μM, infected L929 cells, 96 h, toxic = L929 death, read-out: percentage of T. cruzi growth inhibition
[16] = Trypanosoma cruzi, 10 μM, infected L929 cells, 96 h, toxic = L929 death, read-out: percentage of T. cruzi growth inhibition
[17] = Trypanosoma cruzi, 20 μM, infected L929 cells, 96 h, toxic = L929 death, read-out: percentage of T. cruzi growth inhibition
[18] = noninfected L929 fibroblast cells
[19] = 10 μM, infected L929 cells, 96 h, toxic = L929 death
[20] = 20 μM, infected L929 cells, 96 h, toxic = L929 death

| Structure (SMILES) | percentage of T. cruzi growth inhibition [1, 10] | percentage of T. cruzi growth inhibition [1, 11] | percentage of T. cruzi growth inhibition [1, 12] | inhibition at 1.25 µM [1, 13] [%] | inhibition at 2.5 µM [1, 14] [%] | inhibition at 5 µM [1, 15] [%] | EC50, growth of T. cruzi amastigotes and trypomastigotes ([1]; infected L929 cells, 96 h) | inhibition at 20 µM [3] [%] | percentage of NTS activity, 72 h ([4]; 10 μM) | percentage of NTS activity, 72 h ([4]; 20 μM) | IC50 [4] [µM] | CC50 at 96 h (in vitro; [18]) [µM] | viability at 48 h, 1 µM [7] [%] | viability at 48 h, 5 µM [7] [%] | viability at 48 h, 10 µM [7] [%] | viability at 48 h, 25 µM [7] [%] | viability at 48 h, 50 µM [7] [%] | IC50 [8] [µM] | percentage of activity (death induction), S. mansoni adult worms (S. mansoni adult worms; 20 μM) [%] | percentage of NTS activity, 72 h ([4]; 1 μM) | further results |
| --- | --- | --- | --- | --- | --- | --- | --- | --- | --- | --- | --- | --- | --- | --- | --- | --- | --- | --- | --- | --- | --- |
| O=C(Cn1ccnc1[N+](=O)[O-])NCc1ccccc1 [BZN, benznidazole, reference compound] |  |  |  |  |  |  |  |  |  |  |  |  |  |  |  |  |  |  |  |  | selectivity index (SI), CC50/EC50 [1]: 625; EC50 [1, 9]: 3.8 µM |
| O=C(CCCCSc1nc(-c2ccc(-c3ccccc3)cc2)cc(=O)[nH]1)NO [Compound 1] | toxic | toxic | toxic ^e | 0 | 0 | 0 | inactive | 29 ± 14 | 29.3 ± 0.9% | 43.3 ± 1.9% | > 20 | 20 |  |  |  |  |  |  |  |  | inhibition at 10 µM [1, 16]: 0%; inhibition at 20 µM [1, 17]: 0%; HCA outcome against intramacrophagic L. amazonensis amastigotes [2]: toxic; inhibition at 20 µM [5]: 2.1 ± 3.2% |
| CC(C)(C)OC(=O)Nc1cccc(C(=O)/C=C/c2ccc(/C=C/C(=O)NO)cc2)c1 [Compound 4] | toxic | toxic | toxic | 0 | 0 | 85 |  | 93.6 ± 0.4 | 100% and 100.0 ± 0.0% | 100% and 100.0 ± 0.0% | 1.29 | 5 | 75.7 ± 11.4 | 71.5 ± 12.8 | 50.2 ± 8.4 | 40.4 ± 9.8 | 45.2 ± 6.6 | 15.6 | 63.8 ± 0 | 24% and 24.0 ± 0.0% | inhibition at 20 µM [6]: 95.9 ± 0.3%; percentage of T. cruzi growth inhibition [1, 19]: toxic; percentage of T. cruzi growth inhibition [1, 20]: toxic; selectivity index (SI), CC50/EC50 [1]: 1.25; EC50 [1, 9]: 4 ± 0.07 µM; percentage of activity (death induction), S. mansoni adult worms (S. mansoni adult worms; 10 μM): 45.1 ± 3.9%; HCA outcome against intramacrophagic L. amazonensis amastigotes [2]: toxic; inhibition at 0.8 µM [3]: 39.5 ± 2%; inhibition at 4 µM [3]: 61.4 ± 4.3%; inhibition at 0.8 µM [5]: 10.5 ± 2.9%; inhibition at 4 µM [5]: 95.7 ± 0.3%; inhibition at 20 µM [5]: 97.9 ± 0.4% |
| O=C(/C=C/c1ccc(NC(=O)Cc2cccc3ccccc23)cn1)NO [Compound 5] | toxic | toxic | toxic | 0 |  |  | inactive |  | 31.0 ± 0.0% | 30.8 ± 0.0% | > 20 | 1.25 |  |  |  |  |  |  |  |  | percentage of T. cruzi growth inhibition ([1]; 2.5 μM, infected L929 cells, 96 h, toxic = L929 death): toxic; percentage of T. cruzi growth inhibition ([1]; 5 μM, infected L929 cells, 96 h, toxic = L929 death): toxic; percentage of T. cruzi growth inhibition [1, 19]: toxic; percentage of T. cruzi growth inhibition [1, 20]: toxic |
| O=C(/C=C/c1ccc(Cc2nnc(Cc3cccc4ccccc34)o2)cc1)NO [Compound 7] | toxic | toxic | toxic | 0 | 0 | 21 | inactive |  | 38.0 ± 1.2% | 39.4 ± 1.0% | > 20 | 5 |  |  |  |  |  |  |  |  | percentage of T. cruzi growth inhibition [1, 19]: toxic; percentage of T. cruzi growth inhibition [1, 20]: toxic |
| CC1=C(/C=C/C(C)=C/C=C/C(C)=C/C(=O)Nc2ccccc2N)C(C)(C)CCC1 [Compound 8] |  |  | toxic | 0 | 0 | 7 |  | 41.8 ± 1.4 | 37.9 ± 0.0% | 70% and 71.1 ± 1.0% | 12.8 | 80 | 95.3 ± 28.7 | 115 ± 9.4 | 90.4 ± 16.7 | 98.8 ± 4.6 | 72 ± 5.8 | > 50 | 52.8 ± 2.8 |  | inhibition at 0.8 µM ([6]; 0.8 μM): 2.3 ± 1.4%; inhibition at 20 µM [6]: 6.3 ± 1.7%; selectivity index (SI), CC50/EC50 [1]: 5.7; EC50 [1, 9]: 13.9 µM; inhibition at 10 µM [1, 16]: 32%; inhibition at 20 µM [1, 17]: 78%; inhibition at 40 µM ([1]; Trypanosoma cruzi, 40 μM, infected L929 cells, 96 h, toxic = L929 death, read-out: percentage of T. cruzi growth inhibition): 76%; inhibition at 80 µM ([1]; Trypanosoma cruzi, 80 μM, infected L929 cells, 96 h, toxic = L929 death, read-out: percentage of T. cruzi growth inhibition): 88%; EC50 ([1]; infected L929 cells, 96 h): 14 ± 3.4 µM; percentage of activity (death induction), S. mansoni adult worms (S. mansoni adult worms; 10 μM): 36.1 ± 2.8%; inhibition at 0.8 µM [3]: 4.3 ± 1.1%; inhibition at 4 µM [3]: 5.8 ± 2.5%; inhibition at 0.8 µM [5]: 8.1 ± 2.1%; inhibition at 4 µM [5]: 8.3 ± 3.4% |
| Nc1ccccc1NC(=O)c1ccc(CNC(=O)OCc2cccnc2)cc1 [Compound 9, entinostat, reference compound] | toxic | toxic | toxic | 0 | 0 | 0 | inactive | 28.9 ± 0.9 | 40.0 ± 2.0% | 42.3 ± 0.0% | > 20 |  |  |  |  |  |  |  |  |  | inhibition at 10 µM [1, 16]: 0%; inhibition at 20 µM [1, 17]: 0%; HCA outcome against intramacrophagic L. amazonensis amastigotes [2]: toxic; inhibition at 0.8 µM [3]: 6.7 ± 3.8%; inhibition at 4 µM [3]: 2.9 ± 10.1%; CC50 at 96 h (in vitro): 20 µM |
| Cn1c(/C=C/C(=O)c2ccc(NC(=O)OC(C)(C)C)cc2)ccc1C(=O)NO [Compound 17] |  |  |  |  |  |  |  |  | 100.0 ± 0.0% | 100.0 ± 0.0% | 1.23 |  | 74.2 ± 5.2 | 91.8 ± 11.5 | 102 ± 15.2 | 91.9 ± 4.5 | 77.4 ± 2.3 | > 50 | 58.6 ± 0 | 28.0 ± 0.0% |  |
| CC(C)(C)OC(=O)Nc1ccc(C(=O)/C=C/c2ccc(C(=O)NO)cc2)cc1 [Compound 18] |  |  |  |  |  |  |  |  | 100.0 ± 0.0% | 100.0 ± 0.0% | 1.26 |  | 67.9 ± 4.2 | 73.8 ± 3.3 | 71 ± 7.8 | 50.3 ± 7.4 | 43.1 ± 0.1 | 24.7 | 56.0 ± 7.8 | 26.0 ± 1.0% | percentage of activity (death induction), S. mansoni adult worms (S. mansoni adult worms; 10 μM): 43.1 ± 2.0% |
| CC(C)(C)OC(=O)Nc1cccc(C(=O)/C=C/c2ccc(C(=O)NO)cc2)c1 [Compound 19] |  |  |  |  |  |  |  |  | 100.0 ± 0.0% | 100.0 ± 0.0% | 1.29 |  | 75.6 ± 16.9 | 80.5 ± 13.7 | 82 ± 12.3 | 68.6 ± 1.3 | 52.8 ± 16.1 | 48.7 | 58.6 ± 0 | 24.0 ± 0.0% |  |
| CC(C)(C)OC(=O)Nc1ccc(C(=O)/C=C/c2ccc(/C=C/C(=O)NO)cc2)cc1 [Compound 20] |  |  |  |  |  |  |  |  | 100.0 ± 0.0% | 100.0 ± 0.0% | 1.32 |  | 80 ± 11 | 71.6 ± 9.2 | 63 ± 6 | 59.5 ± 2.4 | 45.6 ± 4.8 | 27.2 | 40.5 ± 2.6 | 22.0 ± 1.0% | percentage of activity (death induction), S. mansoni adult worms (S. mansoni adult worms; 10 μM): 31.3 ± 2.0% |
